Consider six compounds from patent US7470683B2, “Tetracyclic compounds” (Les Laboratoires Servier, priority 2006, dated 2008).

Assay [1] concerns rat. In words: Forced swimming test in the rat (antidepressive properties). It counts as in vivo. The following applies: for Immobility (sec) mean ± s.e.m.: 30 min before 5-min test, carrier 174.3 ± 9.1. The source says:
The forced swimming test (Porsolt R. et al, Eur. J. Pharmacol., 1978, 47, 379-91) is a behavioural test which comprises inducing a state of “despair” in the rat, by placing the naive animal in an enclosure full of water, from which it cannot escape, for a period of fifteen minutes. For the first five to ten minutes, the rat struggles vigorously but finally adopts an immobile posture during the last part of the test. Placed in the same enclosure on the following day, the animal remains immobile for most of the test (5 minutes' duration). Antidepressants reduce the duration of immobility of the rat during the test.
The experiment is carried out over two days, with a 24-hour interval, on rats having an average weight of 170 g, housed the day before in individual cages, with free access to food and drink.
On the first day, each rat is placed for fifteen minutes in a glass cylinder (20 cm diameter×40 cm high) filled to a height of 15 cm with water maintained at 25° C. On the second day, the animal is again placed in a cylinder for a period of five minutes; the total period of immobility (in seconds) of the rat is measured. The product or the solvent is administered to the animal thirty minutes before the beginning of the test. The effect of the products is statistically evaluated by analysis of variance over repeated measurements, followed by a Dunnett's test for comparison of the effects of different doses with the effect of the carrier (distilled water).

In assay [2] the test system is rat. As to the kind of experiment: Ultrasonic vocalisation test in the rat (anxiolytic properties). It counts as in vivo. The following applies: for Duration of ultrasonic vocalisations (s) mean ± s.e.m.: ten-minute recording, carrier 254.3 ± 42.1. The source says: When a rat is placed in an environment previously associated with an unpleasant experience (electric shocks to the paws), its anxiety is shown by the emission of inaudible cries (or ultrasonic vocalisations).
Standard boxes (Coulbourn Instruments), placed in sound-attenuating ventilated enclosures, are provided with a floor composed of electrifiable metal bars (shock generator and scrambler, Med Associates Inc) and with a microphone located in the centre of the ceiling. The ultrasounds are converted into an audible range (bat detector, Buitenbedrijf). The signals modified in that manner are filtered and then processed (RTS software, Engineering Design). The spectrograms obtained are recorded on DAT tapes.
Male rats of the Wistar strain, weighing 180-200 g on their arrival, are housed in cages of four with free access to food and water, from five days before the start of the study until its end. The procedure employed is divided up into three successive stages separated by 24 hours and called training, selection and test. During the training session, the animals are placed singly in the boxes, where they receive six electric shocks (0.8 mA, 8 s) randomly spaced over a period of seven minutes. Selection comprises placing each animal in a box for two minutes, where they receive a single shock, and putting them back in the box thirty minutes later for a ten-minute session of recording the ultrasonic vocalisations; those animals whose vocalisations last less than 90 seconds are excluded from the remainder of the experiment. The test phase proceeds in a similar manner to the selection stage, with the products or the carrier additionally being administered at the end of the two-minute session. The effect of the products is statistically evaluated by analysis of variance over repeated measurements, followed by a Dunnett's test for comparison of the effects of different doses with the effect of the carrier (distilled water).

For assay [3], the system named is rats having a unilateral lesion of the Substantia nigra. As to the kind of experiment: Rotations induced by dopaminergic agonists in rats having a unilateral 6-OH-DA lesion of the Substantia nigra. It counts as in vivo, rat. The note with it: for Contralateral rotations mean ± s.e.m.: recorded for one hour, carrier 53.8 ± 12.8.
Assay [4] deals with presynaptic dopaminergic autoreceptor. In words: Presynaptic dopaminergic autoreceptor activation: unitary extracellular electrical activity in the ventral tegmentum area of the rat. It counts as in vivo. The note with it: cumulative doses, relative to basal activity = 100%, mean ± s.e.m., n = 5. Here is the method:
Test Recording the Unitary Extracellular Electrical Activity in the Ventral Tegmentum Area of the Rat
Administration of a dopaminergic agonist decreases neuron discharge frequency in dose-dependent manner. This effect is reversed by haloperidol, a dopaminergic antagonist.
The rats are anaesthetised using chloral hydrate (400 mg/kg, i.p.) and placed in a stereotactic apparatus (Unimécanique, France) after catheterisation of the femoral vein. The level of anaesthesia is maintained by i.p. administration of chloral hydrate every hour; rectal temperature is held at 37±1° C. by means of a thermostatically controlled heated blanket. A tungsten microelectrode (10 MΩ, 1 μm) is advanced, using an electronic microdrive (Unimécanique, France), into the ventral tegmentum area (AP: −5.5/bregma; L: 0.7; H: 7.0-8.5/dura; Paxinos and Watson atlas, 1986). The potentials of dopaminergic cells are recognised by their morphology (triphasic potentials +/−/+, of a duration greater than 3 msec), their discharge rhythm, whether regular or in bursts of decreasing amplitude, and their discharge frequency, which is from 2 to 8 Hz. A single cell per animal is used for recording.
After a period ≧5 minutes (basal activity) and an initial injection of carrier (distilled water to which a few drops of dilute lactic acid have been added; pH adjusted to 5 using 1N NaOH), the products of the invention are administered intravenously in cumulatively increasing doses at intervals of 2-3 minutes.
Data acquisition is performed by the Spike2 software package (Cambridge Electronic Design, England). The discharge frequency is measured over one minute at the maximum change between each injection and is expressed as the percentage change with respect to the basal activity (averaged over the 5 minutes preceding the first treatment), which is defined as 100%. The effect of the products is statistically evaluated by analysis of variance over repeated measurements, followed by a Dunnett's test for comparison of the effects of different doses with the effect of the carrier (distilled water).

The target of assay [5] is T1, human dopamine D2 receptor (Homo sapiens, UniProt P14416).
T1 construct: expressed in transfected cells; membranes
T1 sequence (P14416 whole entry): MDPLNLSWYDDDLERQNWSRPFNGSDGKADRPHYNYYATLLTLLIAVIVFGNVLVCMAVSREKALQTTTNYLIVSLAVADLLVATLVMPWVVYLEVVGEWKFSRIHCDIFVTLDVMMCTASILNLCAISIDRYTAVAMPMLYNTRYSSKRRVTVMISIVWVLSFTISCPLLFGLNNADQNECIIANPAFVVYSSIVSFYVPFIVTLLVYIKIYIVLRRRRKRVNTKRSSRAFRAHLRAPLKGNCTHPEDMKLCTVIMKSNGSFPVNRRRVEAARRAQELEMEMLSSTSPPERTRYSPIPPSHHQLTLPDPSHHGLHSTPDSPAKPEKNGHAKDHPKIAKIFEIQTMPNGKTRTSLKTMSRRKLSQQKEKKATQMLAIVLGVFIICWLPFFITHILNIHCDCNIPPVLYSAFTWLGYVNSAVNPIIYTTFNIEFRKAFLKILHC
As to the kind of experiment: Human D2 receptor binding study ([125I]-iodosulpride, CHO cell membranes). The following applies: [125I]-iodosulpride 0.1 nM, read-out: pKi hD2 (converted). Here is the method:
(§1) CHO (Chinese Hamster Ovary) cells are stably transfected with the gene encoding the human dopamine D2 or D3 receptor, in accordance with methods known from the literature. The native cells are deficient in the enzyme DHFR (DiHydroFolate Reductase). […] The transfections are carried out using Lipofectin (Gibco). The CHO cells co-transfected with the human D2 receptor and the phleomycin resistance gene are selected for their resistance to the presence of that antibiotic in the culture medium. The cells transfected with the human D3 receptor are selected, in a medium lacking hypoxanthine/thymidine, in the presence of methotrexate. The compositions of the culture media used are: for CHO-D2, DMEM (Dulbecco's Modified Eagle Medium) supplemented with 10% foetal calf serum and hypoxanthine/thymidine; and for CHO-D3, DMEM supplemented with 10% dialysed foetal calf serum. The cells are harvested at confluence and the membranes are then prepared.
After a few minutes in the presence of 0.2% trypsin, the cells are collected and centrifuged at 2,000 g for 5 minutes. The cell mass, which is re-suspended in 10 mM Tris-HCl buffer pH 7.5 containing 5 mM MgSO4, is then homogenised using a Polytron®. The homogenate is then centrifuged at 50,000 g for 15 minutes, and the sediment is re-suspended by gentle sonication in an incubation buffer having the composition: 50 mM Tris-HCl pH 7.5 containing 120 mM NaCl, 5 mM KCl, 2 mM CaCl2, 5 mM MgCl2. The membranes are then divided into aliquots and stored at −80° C. until the day of the experiment.
The concentration ranges of each compound include at least seven points determined in triplicate. Each experiment is repeated at least twice.
The incubation, which lasts for thirty minutes at 30° C., is terminated by rapid filtering through a Brandle apparatus, followed by three consecutive rinsings with Tris-HCl buffer pH 7.4 containing 120 mM NaCl. The filters are collected and then subjected to counting using a gamma counter.
The results are expressed in the form of pKi (pKi=−logKi).

Assay [6] concerns the target T2, human dopamine D3 receptor (Homo sapiens, UniProt P35462).
T2 construct: expressed in transfected cells; membranes
As to the kind of experiment: Human D3 receptor binding study ([125I]-iodosulpride, CHO cell membranes). The note with it: [125I]-iodosulpride 0.2 nM, read-out: pKi hD3 (converted). Here is the method: as §1
After a few minutes in the presence of 0.2% trypsin, the cells are collected and centrifuged at 2,000 g for 5 minutes. The cell mass, which is re-suspended in 10 mM Tris-HCl buffer pH 7.5 containing 5 mM MgSO4, is then homogenised using a Polytron®. […]
The concentration ranges of each compound include at least seven points determined in triplicate. […]

T2 sequence (P35462 whole entry): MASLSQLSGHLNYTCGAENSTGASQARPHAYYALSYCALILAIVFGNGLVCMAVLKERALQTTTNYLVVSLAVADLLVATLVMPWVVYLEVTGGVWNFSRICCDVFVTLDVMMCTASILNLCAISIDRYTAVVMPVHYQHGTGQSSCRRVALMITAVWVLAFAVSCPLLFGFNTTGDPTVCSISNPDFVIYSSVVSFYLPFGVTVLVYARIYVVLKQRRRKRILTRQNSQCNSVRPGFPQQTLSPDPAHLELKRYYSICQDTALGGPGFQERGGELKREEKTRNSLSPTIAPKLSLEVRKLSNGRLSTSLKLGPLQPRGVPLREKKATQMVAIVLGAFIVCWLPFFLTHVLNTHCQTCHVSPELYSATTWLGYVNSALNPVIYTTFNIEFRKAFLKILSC

As to `CCCN1CCO[C@@H]2c3cc4c(cc3CC[C@H]21)CNC4=O` (single isomer, unassigned) [Example 2], the “Immobility (sec) mean ± s.e.m.” value came out at 159.4 ± 7.9 s in the assay on rat [1] (0.02 mg/kg s.c.), 122.7 ± 21.2 s in the assay on rat [1] (0.04 mg/kg s.c.) and 22.03 ± 5.8 s in the assay on rat [1] (0.08 mg/kg s.c.). In addition, in the assay on rat [1] (s.c., rat), the “Effect on period of immobility (in words)” value is given as “reduces the period of immobility of the animal in dose-dependent manner”. Besides, the “Duration of ultrasonic vocalisations (s) mean ± s.e.m.” value with rat [2] (0.0025 mg/kg s.c.) is recorded as 274.0 ± 59.0 s; in the assay with rat [2] (0.04 mg/kg s.c.), 28.0 ± 5.6 s; with rat [2] (0.63 mg/kg s.c.) it was 22.0 ± 3.2 s. The “Effect on duration of vocalisations (in words)” value in the assay with rat [2] (doses of 0.04 and 0.63 mg/kg s.c.) is on record as “substantial reduction in the duration of vocalisations”. The “Contralateral rotations mean ± s.e.m.” value in assay [3] (0.00063 mg/kg s.c.) was 157.4 ± 32.1; in assay [3] (0.0025 mg/kg s.c.), 337.3 ± 48.3; in assay [3] (0.01 mg/kg s.c.) it was 553.8 ± 138.3. In assay [3] (s.c.), the “Dose from which the product is active in the rotation test” value is at least 2.5 µg/kg. Besides, the Neuron discharge frequency in assay [4] (0.125 μg/kg i.v.) stood at 91.8 ± 5.2%; in assay [4] (0.25 μg/kg i.v.), 79.9 ± 5.9 %; in assay [4] (0.5 μg/kg i.v.), 66.3 ± 5.9 %; in assay [4] (1.0 μg/kg i.v.) it was 42.0 ± 7.3 %; in assay [4] (2.0 μg/kg i.v.), 10.8 ± 8.7 %; in assay [4] (4.0 μg/kg i.v.), 2.3 ± 2.3 %. This compound also showed a Neuron discharge frequency in assay [4] (8.0 μg/kg i.v.) of 0.0 ± 0.0 %.
With `CN1CCc2cccc3c2[C@H]1Cc1ccc(O)c(O)c1-3` [Apomorphine, apomorphine, reference compound], in assay [3] (0.02 mg/kg s.c.), the “Contralateral rotations mean ± s.e.m.” value worked out at 497.2 ± 91.4.
In the case of `CCCN1CCO[C@@H]2c3cc4c(cc3CC[C@H]21)COC4=O` [Example 4, (4aR,11bR)-4-Propyl-2,3,4,4a,5,6,8,11b-octahydro-10H-furo[3′,4′:6,7]-naphtho[1,2-b][1,4]oxazin-10-one], the Ki in assay [5] is 2 µM.
With `CCCN1CCO[C@@H]2c3cc4c(cc3CC[C@H]21)CCOC4=O` [Example 5, (4aR,12bR)-4-Propyl-3,4,4a,5,6,8,9,12b-octahydro-2H,11H-pyrano-[4′,3′:6,7]naphtho[1,2-b][1,4]oxazin-11-one], the Ki in assay [5] was 1.58 µM; in assay [6] it was 0.126 µM.
For `CCCN1CCO[C@@H]2c3cc4c(cc3CC[C@H]21)CCNC4=O` [Example 6, (4aR,12bR)-4-Propyl-2,3,4,4a,5,6,8,9,10,12b-decahydro-11H-isoquino-[6,7-h][1,4]benzoxazin-11-one], in assay [5], the Ki is 0.794 µM.
Still for that read-out and setting: for `CCCN1CCO[C@@H]2c3cc4c(=O)[nH]ccc4cc3CC[C@H]21` [Example 8, (4aR,12bR)-4-Propyl-2,3,4,4a,5,6,10,12b-octahydro-11H-isoquino-[6,7-h][1,4]benzoxazin-11-one] the value was 1.26 µM.
